# PMC5608804, “Stepwise Evolution Improves Identification of Diverse Peptides Binding to a Protein Target” (Scientific Reports, 2017)
# Square brackets hold non-standard residues; d marks the D form. Ends that are not written are not given here. Peptide text beside a SMILES is read from it.
# Molecular target: T1, streptavidin (Streptomyces avidinii, UniProt P22629)
# T1 construct: purchased GE Healthcare (Little Chalfont, UK)
# Assay: Cy5-streptavidin binding on HotSpot discovery array, 5-mer L-peptide library
# Conditions: 5-mer L-peptide library array, Cy5-streptavidin; from average of three arrays
# In short: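 Array of 2,476,099 5-mer peptides (19 amino acids, no cysteine) with Gly-Ser linkers, probed overnight at 4 °C with 0.5 µg/ml Cy5-streptavidin in Tris pH 7.4 buffer containing casein or BSA plus Tween-20. Cy5 fluorescence read at 635 nm; peptides selected by signal-to-background >4 across three arrays.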
# T1 sequence (P22629 25-183): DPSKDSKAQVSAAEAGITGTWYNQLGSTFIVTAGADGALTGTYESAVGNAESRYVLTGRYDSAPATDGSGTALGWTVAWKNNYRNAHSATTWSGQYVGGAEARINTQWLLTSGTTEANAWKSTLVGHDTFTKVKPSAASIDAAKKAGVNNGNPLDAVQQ
row,Molecule,S/B (signal to background ratio)
1,YHPQY,49.3
2,LYHPQ,211.9
3,DEHPQ,26.0
4,IHPQF,148.4
5,PAHPQ,124.5
6,LAHPQ,168.6
7,LIHPQ,120.1
8,HPQFG,141.0
9,EGHPM,22.4
10,FKHPQ,123.2
11,HHPMY,20.0
12,HNHPM,37.6
13,MQHPQ,157.5
14,PQHPQ,136.1
15,NYHPM,52.9
16,WHPQT,54.9
17,TGHPQ,128.8
18,QSHPQ,135.3
19,AHHPQ,131.6
20,EHPQF,53.2

row,Molecule,S/B (signal to background ratio)
1,WPHPQ,191.6
2,DHPQK,32.1
3,RMHPQ,119.1
4,KWHPQ,127.9
5,HPQNR,50.5
6,MPHPQ,180.4
7,WHPQG,184.5
8,EHHPM,31.0
9,QRHPQ,154.5
10,HPQND,53.5
11,SSHPM,50.5
12,FTHPQ,177.7
13,RRHPM,31.6
14,HDHPM,51.4
15,SLHPM,46.4
16,MHPMV,20.7
17,KMHPM,22.0
18,LASYH [L-amino acid 5-mer array peptide],25.7
19,IQHPQ,139.6
20,DFHPM,36.4

row,Molecule,S/B (signal to background ratio)
1,YHPQN,176.5
2,WLHPQ,190.9
3,FSHPQ,192.9
4,FMHPQ,206.0
5,RLHPQ,137.3
6,SFHPQ,121.6
7,QFHPQ,180.1
8,WQHPQ,199.1
9,HSHPM,54.9
10,WRHPM,120.0
11,MHPQN,120.0
12,EVHPQ,44.3
13,MHPQV,55.8
14,VIHPM,20.7
15,FDHPQ,121.8
16,ATHPQ,135.7
17,PNHPQ,144.0
18,NHPQG,118.8
19,LVHPQ,129.9
20,WSHPQ,215.6

# Same assay, conditions: 5-mer L-peptide library array, Cy5-streptavidin; from the average of three arrays
row,Molecule,S/B (signal to background ratio)
1,HPQVP,62.1
2,QKHPQ,86.0
3,FHPQV,107.2
4,YHPQQ,76.2
5,PHPQV,97.2
6,DHPQG,77.3
7,THPQV,88.9
8,FFHPM,89.2
9,YHHPM,85.0
10,KAHPQ,77.0
11,LWHPM,64.6
12,DHPQA,83.3
13,WFHPM,87.4
14,LAHPM,62.9
15,ANHPQ,115.8
16,EHPQA,70.0
17,HYHPM,88.3
18,HPQNP,89.0
19,ESHPQ,64.3

row,Molecule,S/B (signal to background ratio)
1,SHPQG,117.3
2,DHPQN,72.7
3,WHPQH,79.3
4,LKHPQ,83.5
5,HPQGQ,73.5
6,NRHPQ,115.2
7,HPQGT,67.0
8,KMHPQ,80.4
9,NEHPQ,58.6
10,HPQFT,92.5
11,VTHPQ,113.4
12,LHPQF,107.9
13,FRHPM,89.2
14,YLHPM,70.7
15,IGHPM,72.3
16,QDHPQ,81.1
17,HPQAP,82.5
18,TWHPM,59.8
19,QHPQS,87.0

# Same assay, conditions: 5-mer L-peptide library, from the average of three arrays
row,Molecule,S/B (signal to background ratio)
1,YHPMI,4.8
2,HPMRH,4.9
3,WHVPQ,4.3
4,YHPPQ,4.7
5,GHPMK,4.0
6,MHPMI,4.7
7,PLPDD [L-amino acid 5-mer array peptide],4.9
8,THPMK,4.1
9,HFPQN,4.1
10,HPWRH,5.0
11,THPQL,4.2
12,HPQSK,4.7
13,RHPMT,5.1
14,FDEWL [L-amino acid 5-mer array peptide],4.8
15,HPMHM,4.4
16,NHPMK,4.7

# Same assay, conditions: average of three arrays, L-peptide 5-mer library
row,Molecule,S/B (signal to background ratio)
1,PAWGH [L-amino acid 5-mer array peptide],11.9
2,NWDEI [L-amino acid 5-mer array peptide],7.3
3,PLPDD [L-amino acid 5-mer array peptide],4.9
4,YHETH [L-amino acid 5-mer array peptide],6.0
5,LSVYH [L-amino acid 5-mer array peptide],5.3
6,LASYH [L-amino acid 5-mer array peptide],25.7
7,FDNWL [L-amino acid 5-mer array peptide],9.9
8,FDEWL [L-amino acid 5-mer array peptide],4.8

# Same assay, conditions: signal to background ratio; 5-mer L-peptide library array, Cy5-streptavidin
row,Molecule,S/B
1,HPQLG,9.1
2,HHPQK,18.7
3,PAWGH [L-amino acid 5-mer array peptide],11.9
4,HPQTA,10.4
5,NWDEI [L-amino acid 5-mer array peptide],7.3
6,VHPMQ,9.6
7,AHPMF,10.8
8,HPMYF,12.1
9,YHETH [L-amino acid 5-mer array peptide],6.0
10,HPQAM,18.6
11,AHPQT,18.8
12,HPMRS,7.0
13,LSVYH [L-amino acid 5-mer array peptide],5.3
14,HPQHV,13.6
15,HPMYP,15.8
16,RHPQP,7.4
17,HPQYD,8.0
18,HPLPW,8.0
19,HPQPD,6.3
20,FDNWL [L-amino acid 5-mer array peptide],9.9
21,HPQPG,5.6
22,HPQYR,7.0
23,RHPMM,11.6
24,HPQIS,8.8
25,PHPMY,12.1

# Molecular target: T1, streptavidin
# Assay: SPR analysis of peptide binding to immobilized streptavidin (Biacore X100)
# Conditions: SPR Kd versus EWVHPQFEQKAK
# Description: SPR analysis of peptide binding to streptavidin was performed with streptavidin immobilized on a chip and peptides in solution (see Materials and Methods).
# Surface Plasmon Resonance (SPR) experiments were performed using a Biacore X100 instrument (GE Healthcare). 60 µl of 100 µg/ml streptavidin in 10 mM Na-acetate (pH 5.0) was immobilized to flow cell 2 (Fc2) of a sensor chip CM5 (GE Healthcare) using the Amine Coupling Kit (GE Healthcare) at 20 °C for 6 min. Peptide stock solutions were prepared at 5 or 10 mM in H2O and diluted in HBS-EP+ (GE Healthcare) buffer. Peptide binding was performed in a multiple kinetics mode using HBS-EP+ as a running buffer and 0.2 M NaCl, 10 mM NaOH, or 10 mM HCl-glycine (pH 1.7) as the regeneration buffer. Binding kinetics parameters were calculated using Biacore X100 software.
row,Molecule,fold improvement of Kd over the HPQ peptide also developed in this study [fold]
1,AFPDYLAEYHGG-NH2 [NH2-AFPDYLAEYHGG-amide],100

# Same assay, conditions: SPR Kd versus Strep-tag II HPQ
row,Molecule,fold improvement of Kd over Strep-tag II HPQ
1,AFPDYLAEYHGG-NH2 [NH2-AFPDYLAEYHGG-amide],"1,000 fold"

# Same assay, conditions: SPR sensorgrams, immobilized streptavidin
row,Molecule,type of SPR binding kinetics
1,"SAWSHPQFEK [NH2-SAWSHPQFEK-COOH, reference compound]",fast on/fast off
2,EWVHPQFEQKAK-NH2 [NH2-EWVHPQFEQKAK-amide],fast on/fast off
3,H-GNSFDDWLASKG-NH2,irreversible binding kinetics

# Same assay, conditions: SPR, streptavidin amine-coupled to CM5 chip, peptides in HBS-EP+; steady-state affinity for fast on/fast off peptides, otherwise 1:1 binding model
row,Molecule,equilibrium dissociation constant (Kd)
1,H-GNSFDDWLASKG-NH2,irreversible binding

# Same assay, conditions: peptide concentrations of ≤2 mM
row,Molecule,binding in SPR
1,NC(=O)CC[C@H](NC(=O)[C@H](Cc1c[nH]c2ccccc12)NC(=O)[C@H]1CCCN1C(=O)[C@H](CCC(N)=O)NC(=O)[C@@H](N)CC(N)=O)C(=O)O [NH2-NQpWQ-COOH] (H-NQ[dP]WQ-OH),no measurable binding
